Data taken from the Kinase Knowledgebase extract (Sharma et al. 2016).

Biological target: MAPK14 (human) (UniProt Q16539)
Experiment: Enzyme Assay

MAPK14 (human), sequence (Q16539 whole entry, looked up): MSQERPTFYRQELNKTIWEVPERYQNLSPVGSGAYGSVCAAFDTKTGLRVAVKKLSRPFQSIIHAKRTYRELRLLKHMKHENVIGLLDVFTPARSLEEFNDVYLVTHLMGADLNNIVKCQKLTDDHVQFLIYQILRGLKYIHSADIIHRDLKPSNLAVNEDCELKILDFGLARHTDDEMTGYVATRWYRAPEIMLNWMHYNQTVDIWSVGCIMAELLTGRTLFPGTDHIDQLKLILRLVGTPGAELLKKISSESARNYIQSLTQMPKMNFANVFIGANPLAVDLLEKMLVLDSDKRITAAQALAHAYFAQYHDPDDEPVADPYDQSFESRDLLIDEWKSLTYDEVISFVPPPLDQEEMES

IC50	SMILES
< 0.01 µM	Cc1ccc(-n2nc(C(C)(C)C)cc2NC(=O)N[C@H]2CC[C@@H](Oc3ccc4nnc([C@@H]5CCCCN5C)n4c3)c3ccccc32)cc1
< 0.01 µM	Cc1ccc(-n2nc(C(C)(C)C)cc2NC(=O)N[C@H]2CC[C@@H](Oc3ccc4nnc(N5CCCCC5)n4c3)c3ccccc32)cn1
< 0.01 µM	C[C@H]1CCCCN1c1nnc2ccc(O[C@@H]3CC[C@H](NC(=O)Nc4cc(C(C)(C)C)nn4-c4ccc(CN5CCCC5)cc4)c4ccccc43)cn12
< 0.01 µM	CN1CCN(Cc2ccc(-n3nc(C(C)(C)C)cc3NC(=O)N[C@H]3CC[C@@H](Oc4ccc5nnc(N6CCCCC6)n5c4)c4ccccc43)cc2)CC1
< 0.01 µM	CC(C)(C)c1cc(NC(=O)N[C@H]2CC[C@@H](Oc3ccc4nnc(N5CCCCC5)n4c3)c3ccccc32)n(-c2cccc(OCCO)c2)n1
< 0.01 µM	Cc1ccc(-n2nc(C(C)(C)C)cc2NC(=O)N[C@H]2CC[C@@H](Oc3ccc4nnc([C@]5(CO)CCCN5C)n4c3)c3ccccc32)cc1
< 0.01 µM	Cc1ccc(-n2nc(C(C)(C)C)cc2NC(=O)N[C@H]2CC[C@@H](Oc3ccc4nnc([C@H]5CCCN(C)C5)n4c3)c3ccccc32)cc1
< 0.01 µM	CN(C)CCn1cc(-n2nc(C(C)(C)C)cc2NC(=O)N[C@H]2CC[C@@H](Oc3ccc4nnc(N5CCCCC5)n4c3)c3ccccc32)cn1
< 0.01 µM	CCN(CC)CCOc1cccc(-n2nc(C(C)(C)C)cc2NC(=O)N[C@H]2CC[C@@H](Oc3ccc4nnc(N5CCCC[C@@H]5C)n4c3)c3ccccc32)c1
< 0.01 µM	Cc1ccc(-n2nc(C(C)(C)C)cc2NC(=O)N[C@H]2CC[C@@H](Oc3ccc4nnc(N5CCC[C@@H]5CO)n4c3)c3ccccc32)cc1
< 0.01 µM	C[C@H]1CCCCN1c1nnc2ccc(O[C@@H]3CC[C@H](NC(=O)Nc4cc(C(C)(C)C)nn4-c4cccc(OCCN5C6CCCC5CC6)c4)c4ccccc43)cn12
< 0.01 µM	Cc1ccc(-n2nc(C(C)(C)C)cc2NC(=O)N[C@H]2CC[C@@H](Oc3ccc4nnc(N(C)CCN5CCOCC5)n4c3)c3ccccc32)cc1
< 0.01 µM	Cc1ccc(-n2nc(C(C)(C)C)cc2NC(=O)N[C@H]2CC[C@@H](Oc3ccc4nnc(N5[C@H](C)CCC[C@@H]5C)n4c3)c3ccccc32)cc1
< 0.01 µM	Cc1ccc(-n2nc(C(C)(C)C)cc2NC(=O)N[C@H]2CC[C@@H](Oc3ccc4nnc(N5CCC(CCO)CC5)n4c3)c3ccccc32)cc1
< 0.01 µM	Cc1ccc(-n2nc(C(C)(C)C)cc2NC(=O)N[C@H]2CC[C@@H](Oc3ccc4nnc(N5CCCC5)n4c3)c3ccccc32)cc1
< 0.01 µM	COC1CCN(Cc2cccc(-n3nc(C(C)(C)C)cc3NC(=O)N[C@H]3CC[C@@H](Oc4ccc5nnc(N6CCCC[C@@H]6C)n5c4)c4ccccc43)c2)CC1
< 0.01 µM	Cc1ccc(-n2nc(C(C)(C)C)cc2NC(=O)N[C@H]2CC[C@@H](Oc3ccc4nnc(N5CCC(O)CC5)n4c3)c3ccccc32)cc1
< 0.01 µM	Cc1ccc(-n2nc(C(C)(C)C)cc2NC(=O)N[C@H]2CC[C@@H](Oc3ccc4nnc([C@H]5CCCN5)n4c3)c3ccccc32)cc1
< 0.01 µM	CC(C)(C)c1cc(NC(=O)N[C@H]2CC[C@@H](Oc3ccc4nnc(N5CCCCC5)n4c3)c3ccccc32)n(-c2ccc(O)cc2)n1
< 0.01 µM	Cc1ccc(-n2nc(C(C)(C)C)cc2NC(=O)N[C@H]2CC[C@@H](Oc3ccc4nnc(CN5CCNCC5)n4c3)c3ccccc32)cc1
< 0.01 µM	C[C@H]1CCCCN1c1nnc2ccc(O[C@@H]3CC[C@H](NC(=O)Nc4cc(C(C)(C)C)nn4-c4cccc(CCN5CCCOCC5)c4)c4ccccc43)cn12

IC50	SMILES
< 0.01 µM	CN1CCC[C@H]1c1nnc2ccc(O[C@@H]3CC[C@H](NC(=O)Nc4cc(C(C)(C)C)nn4-c4cccc(OCCO)c4)c4ccccc43)cn12
< 0.01 µM	C[C@@H]1CCC[C@H](C)N1c1nnc2ccc(O[C@@H]3CC[C@H](NC(=O)Nc4cc(C(C)(C)C)nn4-c4cccc(CN5CCCC5)c4)c4ccccc43)cn12
< 0.01 µM	Cc1ccc(-n2nc(C(C)(C)C)cc2NC(=O)N[C@H]2CC[C@@H](Oc3ccc4nnc([C@@H]5CCCN5C)n4c3)c3ccccc32)cc1
< 0.01 µM	C[C@@H]1CCCCN1c1nnc2ccc(O[C@@H]3CC[C@H](NC(=O)Nc4cc(C(C)(C)C)nn4-c4cccc(OCCN(C)C)c4)c4ccccc43)cn12
< 0.01 µM	Cc1ccc(-n2nc(C(C)(C)C)cc2NC(=O)N[C@H]2CC[C@@H](Oc3ccc4nnc([C@@H]5C[C@@H](F)CN5C)n4c3)c3ccccc32)cc1
< 0.01 µM	CN1CCC[C@H]1c1nnc2ccc(O[C@H]3C[C@H](NC(=O)Nc4cc(C(C)(C)C)nn4-c4ccc(CO)cc4)c4ccccc43)cn12
< 0.01 µM	COCC(=O)Nc1cc(O[C@@H]2CC[C@H](NC(=O)Nc3cc(C(C)(C)C)nn3-c3ccc(C)cc3)c3ccccc32)ccn1
< 0.01 µM	Cc1ccc(-n2nc(C(C)(C)C)cc2NC(=O)N[C@H]2CC[C@@H](Oc3ccc4nnc([C@H]5CCCN5C)n4c3)c3ccccc32)cc1
< 0.01 µM	C[C@H]1CCCCN1c1nnc2ccc(O[C@@H]3CC[C@H](NC(=O)Nc4cc(C(C)(C)C)nn4-c4ccnc(N(C)CCN(C)C)n4)c4ccccc43)cn12
< 0.01 µM	Cc1ccc(-n2nc(C(C)(C)C)cc2NC(=O)N[C@H]2CC[C@@H](Oc3ccc4nnc(N5CC[C@H](CO)C5)n4c3)c3ccccc32)cc1
< 0.01 µM	C[C@@H]1CCC[C@H](C)N1c1nnc2ccc(O[C@@H]3CC[C@H](NC(=O)Nc4cc(C(C)(C)C)nn4-c4cccc(CN5CCOCC5)c4)c4ccccc43)cn12
< 0.01 µM	Cc1ccc(-n2nc(C(C)(C)C)cc2NC(=O)N[C@H]2CC[C@@H](Oc3ccc4nnc(N5CCCCC5)n4c3)c3ccccc32)cc1
< 0.01 µM	C[C@H]1CCCCN1c1nnc2ccc(O[C@@H]3CC[C@H](NC(=O)Nc4cc(C(C)(C)C)on4)c4ccccc43)cn12
< 0.01 µM	Cc1ccc(-n2nc(C(C)(C)C)cc2NC(=O)N[C@H]2CC[C@@H](Oc3ccc4nnc([C@@H]5CCCN(C)C5)n4c3)c3ccccc32)cc1
< 0.01 µM	C[C@@H]1CCC[C@H](C)N1c1nnc2ccc(O[C@@H]3CC[C@H](NC(=O)Nc4cc(C(C)(C)C)nn4CCO)c4ccccc43)cn12
< 0.01 µM	C[C@H]1COCCN1c1nnc2ccc(O[C@@H]3CC[C@H](NC(=O)Nc4cc(C(C)(C)C)nn4CCN4CCOCC4)c4ccccc43)cn12
< 0.01 µM	CC(C)(C)c1cc(NC(=O)N[C@H]2CC[C@@H](Oc3ccc4nnc(N5CCCCC5)n4c3)c3ccccc32)n(-c2ccc(C#N)cc2)n1
< 0.01 µM	C[C@H]1CCCCN1c1nnc2ccc(O[C@@H]3CC[C@H](NC(=O)Nc4cc(C(C)(C)C)nn4-c4ccc(CN5CCCCC5)cc4)c4ccccc43)cn12
< 0.01 µM	CN(C)CCn1cnc(-n2nc(C(C)(C)C)cc2NC(=O)N[C@H]2CC[C@@H](Oc3ccc4nnc(N5CCCCC5)n4c3)c3ccccc32)c1
< 0.01 µM	Cc1ccc(-n2nc(C(C)(C)C)cc2NC(=O)N[C@H]2CC[C@@H](Oc3ccc4nnc(-c5cccc(CN6CCOCC6)c5)n4c3)c3ccccc32)cc1
< 0.01 µM	Cc1ccc(-n2nc(C(C)(C)C)cc2NC(=O)N[C@H]2CC[C@@H](Oc3ccc4nnc(C(C)(C)N(C)C)n4c3)c3ccccc32)cc1

IC50	SMILES
< 0.01 µM	COc1c(NC(=O)N[C@H]2CC[C@@H](Oc3ccc4nnc(N5CCCCC5)n4c3)c3ccccc32)cc(C(C)(C)C)cc1NS(C)(=O)=O
< 0.01 µM	CC(C)N(c1nnc2ccc(O[C@@H]3CC[C@H](NC(=O)Nc4cc(C(C)(C)C)nn4-c4cccc(OCCN(C)C)c4)c4ccccc43)cn12)C(C)C
< 0.01 µM	C[C@H]1CCCCN1c1nnc2ccc(O[C@@H]3CC[C@H](NC(=O)Nc4cc(C(C)(C)C)nn4-c4cccc(CN5CCOCC5)c4)c4ccccc43)cn12
< 0.01 µM	Cc1ccc(-n2nc(C(C)(C)C)cc2NC(=O)N[C@H]2CC[C@@H](Oc3ccc4nnc(CN5CCN(C)C(CO)C5)n4c3)c3ccccc32)cc1 (stereo partly drawn)
< 0.01 µM	Cc1ccc(-n2nc(C(C)(C)C)cc2NC(=O)N[C@H]2CC[C@@H](Oc3ccc4nnc([C@@H]5CC(C)(C)CN5C)n4c3)c3ccccc32)cc1
< 0.01 µM	Cc1ccc(-n2nc(C(C)(C)C)cc2NC(=O)N[C@H]2CC[C@@H](Oc3ccc4nnc(CC5CCN(C)CC5)n4c3)c3ccccc32)cc1
< 0.01 µM	Cc1ccc(-n2nc(C(C)(C)C)cc2NC(=O)N[C@H]2CC[C@H](Oc3ccc4nnc([C@@H]5CCCN5C)n4c3)c3ccccc32)cc1
< 0.01 µM	CN1CCN(Cc2cccc(-n3nc(C(C)(C)C)cc3NC(=O)N[C@H]3CC[C@@H](Oc4ccc5nnc(N6CCCCC6)n5c4)c4ccccc43)c2)CC1
< 0.01 µM	COc1c(NC(=O)N[C@H]2CC[C@@H](Oc3ccc4nnc([C@@H]5CCCN5C)n4c3)c3ccccc32)cc(C(C)(C)C)cc1NS(C)(=O)=O
< 0.01 µM	C[C@H]1CCCCN1c1nnc2ccc(O[C@@H]3CC[C@H](NC(=O)Nc4cc(C(C)(C)C)nn4C)c4ccccc43)cn12
< 0.01 µM	C[C@H]1CCCCN1c1nnc2ccc(O[C@@H]3CC[C@H](NC(=O)Nc4cc(C(C)(C)C)nn4CCN(C)C)c4ccccc43)cn12
< 0.01 µM	Cc1ccc(-n2nc(C(C)(C)C)cc2NC(=O)N[C@H]2CC[C@@H](Oc3ccc4nnc(N5CC[C@@H](CO)C5)n4c3)c3ccccc32)cc1
< 0.01 µM	Cc1ccc(-n2nc(C(C)(C)C)cc2NC(=O)N[C@H]2CC[C@H](Oc3ccc4nnc(N5CCCCC5)n4c3)c3ccccc32)cc1
< 0.01 µM	CC(C)(C)c1cc(NC(=O)N[C@H]2CC[C@@H](Oc3ccc4nnc(N5CCCCC5)n4c3)c3ccccc32)n(-c2ccc(CO)cc2)n1
< 0.01 µM	CC(C)(C)c1cc(NC(=O)N[C@H]2CC[C@@H](Oc3ccc4nnc(N5CCC(CO)CC5)n4c3)c3ccccc32)n(-c2ccc(CO)cc2)n1
< 0.01 µM	CC(C)(C)c1cc(NC(=O)N[C@H]2CC[C@@H](Oc3ccc4nnc(N5CCCCC5)n4c3)c3ccccc32)n(-c2cccc(CN3CCN(CCO)CC3)c2)n1
< 0.01 µM	CN1CCCC[C@H]1c1nnc2ccc(O[C@@H]3CC[C@H](NC(=O)Nc4cc(C(C)(C)C)nn4-c4ccc(CO)cc4)c4ccccc43)cn12
< 0.01 µM	C[C@H]1CCCCN1c1nnc2ccc(O[C@@H]3CC[C@H](NC(=O)Nc4cc(C(C)(C)C)nn4-c4cccc(CN5CCC(F)CC5)c4)c4ccccc43)cn12
< 0.01 µM	Cc1ccc(-n2nc(C(C)(C)C)cc2NC(=O)N[C@H]2CC[C@@H](Oc3ccc(C#N)nc3)c3ccccc32)cc1
< 0.01 µM	Cc1ccc(-n2nc(C(C)(C)C)cc2NC(=O)N[C@H]2CC[C@@H](Oc3ccc4nnc(N(C)C)n4c3)c3ccccc32)cc1
< 0.01 µM	C[C@H]1CCCCN1c1nnc2ccc(O[C@@H]3CC[C@H](NC(=O)Nc4cc(C(C)(C)C)nn4-c4cccc(OCCN5CCC(F)CC5)c4)c4ccccc43)cn12
